These results are taken from article PMC5768343, “A natural inhibitor of kidney-type glutaminase: a withanolide from Physalis pubescens with potent anti-tumor activity” (Oncotarget, 2017).

The subject of test [1] is human pancreatic cancer cells (SW1990). Description: CCK8 cytotoxicity / proliferation assay, SW1990. The following applies: for relative cell vitality: CCK8.
Description: The SW1990, HT1080, and A375-S2 human tumor cell lines were obtained from ATCC (Manassas, VA, USA). […] SW1990, HT1080, and LO2 cells were cultured in DMEM medium with 10% fetal bovine serum (FBS). All of these cells were cultured at 37°C in a humidified atmosphere with 5% CO2. To estimate cell viability, cells (5000/well) were separately seeded in 96-well plates for 24 h at 37°C in a 5% CO2 incubator. […] All the experiments were performed in triplicate, and the mean absorbance values were calculated. The IC50 values of the compounds were derived from the mean OD values of the triplicate tests versus the drug concentration curves.
Cell proliferation was assessed by incubating them with Cell Counting Kit-8 reagents (Dojindo, Shanghai, China) for 24 h, 48 h, 72 h, 96 h at 37°C and measuring the absorbance at 450 nm. The experiment was performed in triplicate.
Test [2] deals with T1, catalytic domain of human KGA (cKGA) (Homo sapiens, UniProt O94925).
T1 sequence (O94925 221-553): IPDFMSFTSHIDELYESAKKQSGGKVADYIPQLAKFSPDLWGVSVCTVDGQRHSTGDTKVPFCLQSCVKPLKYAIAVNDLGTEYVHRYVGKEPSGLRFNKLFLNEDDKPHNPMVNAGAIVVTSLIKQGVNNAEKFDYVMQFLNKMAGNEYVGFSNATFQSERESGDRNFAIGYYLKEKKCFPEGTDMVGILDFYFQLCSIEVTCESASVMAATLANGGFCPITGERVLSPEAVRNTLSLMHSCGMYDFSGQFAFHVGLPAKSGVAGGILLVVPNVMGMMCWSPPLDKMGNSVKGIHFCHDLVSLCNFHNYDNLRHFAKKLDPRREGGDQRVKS
Description: In vitro KGA enzyme inhibition assay (GDH-coupled, NADH absorbance 340 nm). It counts as biochemical. As for the experimental part:
To validate the finding of the virtual ligand screening, the catalytic domain of human KGA (cKGA) was expressed by recombinant technique. […] Enzyme kinetics has been measured to explore the mode of inhibition.
Specific details were referenced to our previous work. Briefly, The catalytical domain of human KGA (cKGA) encoding amino acids 221–553 was cloned into pET26b vector with C-terminal His tag. The cKGA was then expressed in E.coli BL21 (DE3)-RIL-Condon plus. Cultures were grown in LB media contain 35 mg/L kanamycin at 37°C to OD value in 0.6–0.8, then induced at 16°C with 0.4 mM IPTG for 16 h. Cultures were harvested by centrifugation at 3500 g for 8 minutes. Cell pellets were sonicated in a buffer containing 50 mM Hepes (pH 7.5), 500 mM NaCl, 5mM imidazole, […], 1 mM DTT, 0.1% Triton X-100, and final 1 mM PMSF (Sigma-Aldrich USA). The cKGA were purified by affinity chromatography by Ni-NTA agarose, and further purified by size exclusion chromatography (Superdex 200, GE-health care, USA). The purified cKGA was stored in buffer containing 20 mM Hepes (pH 7.5), 200 mM NaCl, 10% glycerol and 3 mM DTT.
The KGA profiling assays were to evaluate the compound-dependent inhibition of KGA in vitro catalytic assay. Specific details were referenced to our previous work. Briefly, the KGA catalyzed the glutamine into glutamate plus ammonium, and then glutamate plus NAD converted to α-ketoglutarate and NADH by the catalysis of GDH. The elevated absorbance at 340 nm with the form of NADH was recorded using a microplate reader. The enzymatic activity was measured in 100 μL system. Mixed buffer containing 0.15 M K2HPO4, 50 mM Tris-Acetate pH 8.6, 0.1 mg/mL bovine serum albumin (BSA), 0.25 mM EDTA, 1 mM DTT, 4 mM NAD were prepared. Then, 10 mM glutamine, 1 unit of glutamate dehydrogenase (GDH) and inhibitor were added in the mix. Final concentration of 1 μM cKGA was added to initiate the reaction. Generation of NADH was monitored by 340 nm absorbance every minute for 20 minutes at 37°C. The IC50 values were calculated by fitted regression equation using the-log plot (GraphPad Prism). Each value was on behalf of the means ± SD of three independent tests, each with three replicates.

For the next test, the system named is HCC827-ER. Kind of test: EdU and DAPI double staining, combination with erlotinib. Type of test: cell-based, human. The following applies: 0.5 μM with erlotinib 1, 2, 4, 8 μM. As for the experimental part:
The logarithmic growth phase cells were seeded in 24-well plates at 2 × 10^4 ∼ 5 × 10^5 cells per well. After 4–6 h, the medium was removed, the medium containing no or different concentrations of compound was replaced, and 50 μM of EdU was added. 2 h later, the medium was removed, cells washed by PBS. 200 μL of cell fixative (i.e., PBS containing 4% paraformaldehyde) was added and incubated at room temperature for 30 minutes. The solution was discarded and 200 μL of 2 mg/mL glycine was added to each well. After 5 minutes of incubation, the glycine solution was discarded. Each well washed with 200 μL of PBS, rinse for 5 minutes, and PBS was removed. Apollo staining was added to each well with 200 μL of 1 X Apollo® staining solution. After incubation for 30 minutes at room temperature and decolorization, the reaction solution was discarded. Similarly, 200 μL of 1 × Hoechst 33342 solution was added to each well to dye the total DNA. After 30 minutes of incubation at room temperature and the reaction solution was discarded, and then the images were captured and analyzed by fluorescence microscopy.

Another test concerns SW1990 cells. Kind of test: Combination with benserazide, CCK8 viability and CompuSyn combination index. Type of test: cell-based, human. Conditions: combined use with benserazide, ratio less than 1:50, CompuSyn. The source says: Tumor cells are speculated to maintain growth and proliferation through a variety of energy metabolism pathways. Therefore, targeting at a single energy metabolism material might not be an effective method for cancer therapy. It has been determined that growing cancer cells were strongly dependent on energy sources such as glucose and glutamine. We supposed that the blocking of both glucose and glutamine metabolism pathways could display a synergistic tumor inhibition. Hexokinase 2 (HK2) was the crucial enzyme controlling the first step of glycolysis, and systemic deletion of HK2 can impair the tumor progression in mouse models. Nowadays, Metformin (Met), 2-Deoxyglucose (2-DG) and 3-Bromopyruvate (3-BrPA) are most commonly reported HK2 inhibitors. […] The combined inhibitory effects of physapubescin K and benserazide on the growth of SW1990 cells were evaluated. […]
Figure 8 Synergy of physapubescin K (PSBK) in combination treatments (A) Cells were cultured for 1 day with or without the indicated doses of PSBK and benserazide, and cell viability was evaluated by CCK8 assay. (B) At the indicated concentration ratio of PSBK: benserazide combinations at different effect levels, ED50, ED75 and ED95 were calculated using the CompuSyn software. […] The proportion of cells in proliferation is counted by manual counting (D).

In test [3] the test system is human normal liver cell LO2. Kind of test: CCK8 cytotoxicity / proliferation assay, LO2. Type of test: cell-based. Conditions: CCK8, 48 h. As for the experimental part:
The experiment was performed in triplicate.

With `CO[C@H]1O[C@@H]([C@@H](C)[C@H]2C[C@H](OC(C)=O)[C@H]3[C@@H]4C[C@H]5O[C@]56[C@@H](O)C=CC(=O)[C@]6(C)[C@H]4CC[C@@]32C)C[C@]2(C)O[C@]12C` [physapubescin K], the IC50 in test [1] (Homo sapiens, SW1990, 48 h, read-out: IC50 SW1990) amounted to 2210 ± 10 nM; in test [2] (1 μM cKGA, 10 mM glutamine, 37°C) it was 520 ± 60 nM; in test [3], 11700 ± 320 nM. Also, in test [1] (SW1990, 1 μM), the “sensitivity of cell growth to treatment” value is recorded as “sensitive”. For the same molecule, the relative cell vitality in test [1] (SW1990, 2 μM, 24 h) is 50.3%; in test [1] (SW1990, 2 μM, 36 h) it was 37.6%; in test [1] (SW1990, 2 μM, 48 h) it was 27.3%. For the same molecule, the cell proliferation result in test [1] (SW1990, 2 μM, alleviated by addition of 4 mM glutamate) was “significantly inhibited cell proliferation”. Further, the “catalytic rate of cKGA” value in test [2] (5 μM compound, after substrate concentration was increased from 10 mM to 40 mM (0 at 10 mM)) is on record as 0.02 ∆OD/min. The “inhibition of the activity of KGA” value in test [2] (5 μM compound, substrate concentration 10 mM) is “completely inhibit”. In addition, the mode of inhibition result in test [2] (higher concentration, increases in Km for glutamine) is recorded as “competitive”; in test [2] (low concentration, decrease in Vmax, little effect on Km for glutamine), “non-competitive”. Further, the reversibility of inhibition result in test [2] (saturated inhibition assay, 5 μM) is given as “reversible”. The “sensitivity of HCC827-ER to erlotinib” value in the test on HCC827-ER is listed as “significantly increase the sensitivity”. For the same molecule, the CI value result in the test with SW1990 cells is listed as “less than 0.8”.

As a reminder, the IC50 is the midpoint of a concentration-inhibition curve.
